Test results from US5104875A, “Combination preparations containing rifampicin and thioacetazon” (priority 1989, dated 1992).
Where two headings read alike, the source gives them in different places.

Tests used:
[1] = tested on: mycobacteria of the avium complex, patient two; assay: MIC alone and in combination; format: cell-based; details: Homo sapiens, single
[2] = tested on: mycobacteria of the avium complex, patient Sa; assay: MIC alone and in combination; format: cell-based; details: Homo sapiens, single
[3] = tested on: mycobacteria of the avium complex, patient one; assay: MIC alone and in combination; format: cell-based; details: Homo sapiens, single
[4] = tested on: mycobacteria of the avium complex, patient Me; assay: MIC alone and in combination; format: cell-based; details: Homo sapiens, single
[5] = tested on: mycobacteria of the avium complex, patient Ku; assay: MIC alone and in combination; format: cell-based; details: Homo sapiens, single
[6] = tested on: mycobacteria of the avium complex, patient Wi; assay: MIC alone and in combination; format: cell-based; details: Homo sapiens, single
[7] = tested on: mycobacteria of the avium complex, patient Ma; assay: MIC alone and in combination; format: cell-based; details: Homo sapiens, single
[8] = tested on: mycobacteria of the avium complex, patient Bi; assay: MIC alone and in combination; format: cell-based; details: Homo sapiens, single
[9] = tested on: mycobacteria of the avium complex, patient Ka-B; assay: MIC alone and in combination; format: cell-based; details: Homo sapiens, single
[10] = tested on: mycobacteria of the avium complex, patient Vo; assay: MIC alone and in combination; format: cell-based; details: Homo sapiens, single
M.tuberculosis H37Rv = assay: chess-board titration, growth inhibition; format: cell-based
M. avium Bi = assay: MIC of the individual substances; details: single substance
Protocol: (§1) The bacteria were cultivated in a liquid nutrient medium according to Lockemann (cf. "Nachweisverfahren fur Mykobakterien aus Untersuchungsmaterial, III, Nahrbodenrezepte zur Kultur von Tuberkulosebakterien, 1978, Publisher: Deutsches Zentralkomitee zur Bekampfung der Tuberkulose, Poppenhusenstrasse 14c, 2000 Hamburg 60) enriched with 0.5 % albumin and 1 % human serum. In each case 5×10^-3 to 5 ×10^-5 mg, referred to the weight in wet state, of the mycobacteria strains were incubated in 2 ml of the culture liquid at 37° C. with graded concentrations of RMP and Thz. Readings were taken from the culture tubes after 8 to 15 days.
(§2) The MIC is the concentration of the growth inhibitor in μg/ml, at which no multiplication of the seeded cells can be established.

[11] = tested on: RMP-resistant patient strain M. avium BK; assay: chess-board titration, growth inhibition; format: cell-based;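 also: +++ means growth as in control and minus means complete inhibition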
M. avium 227 = assay: MIC of the individual substances
Protocol: as §1, §2

[12] = tested on: mycobacteria of the MOTT-complex; assay: effect when administered alone; details: administered alone (cf. Example 2, Table 2 and Table 5)
M. avium Ro = assay: MIC of the individual substances; details: for MIC: single substance
Protocol: as §1, §2

M. avium Dan = assay: MIC of the individual substances; details: for MIC: single substance
Protocol: as §1, §2

[13] = higher doses; cited from earlier work
mycobacteria = details: administered alone in acceptable doses; cited from earlier work
[14] = Mycobacterium avium, 227, read-out: average inhibiting concentration alone

In the case of `CC[C@@H](CO)NCCN[C@@H](CC)CO` [EMB, ethambutol], the MIC [1] is reported as 16 to 32 µg/mL, the MIC [2] is reported as > 32 µg/mL and the MIC [3] is reported as > 32 µg/mL. The MIC [4] was 8 µg/mL, the MIC [5] was > 32 µg/mL and the MIC [6] was > 32 µg/mL. For the same compound, the MIC [7] was 32 µg/mL, the MIC [8] was 4 µg/mL and the MIC [9] was > 32 µg/mL. For the same compound, the MIC [10] was 4 to 8 µg/mL.
In the case of `NNC(=O)c1ccncc1` [INH, isonicotinic acid hydrazide], the MIC [1] is reported as 16 µg/mL, the MIC [2] is reported as 32 µg/mL and the MIC [3] is reported as 4 µg/mL. For the same compound, the MIC [4] was 16 µg/mL, the MIC [5] was 4 µg/mL and the MIC [6] was 16 µg/mL. The MIC [7] was > 32 µg/mL, the MIC [8] was > 32 µg/mL and the MIC [9] was 32 µg/mL. It also gave an MIC [10] of 8 µg/mL.
For `CO[C@H]1/C=C/O[C@@]2(C)Oc3c(C)c(O)c4c(O)c(c(/C=N/N5CCN(C)CC5)c(O)c4c3C2=O)NC(=O)/C(C)=C\C=C\[C@H](C)[C@H](O)[C@@H](C)[C@@H](O)[C@@H](C)[C@H](OC(C)=O)[C@@H]1C` [RMP, rifampicin], the growth inhibition (M.tuberculosis H37Rv; Rifampicin .006 ug/ml, Thioacetazon 0) was “+++”, the growth inhibition (M.tuberculosis H37Rv; Rifampicin .012 ug/ml, Thioacetazon 0) was “+++” and the growth inhibition (M.tuberculosis H37Rv; Rifampicin .018 ug/ml, Thioacetazon 0) was “+++”. For the same compound, the growth inhibition (M.tuberculosis H37Rv; Rifampicin .024 ug/ml, Thioacetazon 0) was “+++”, the growth inhibition (M.tuberculosis H37Rv; Rifampicin .030 ug/ml, Thioacetazon 0) was “++” and the growth inhibition (M.tuberculosis H37Rv; Rifampicin .036 ug/ml, Thioacetazon 0) was “+”. For the same compound, the growth inhibition (M.tuberculosis H37Rv; Rifampicin .042 ug/ml, Thioacetazon 0) was “+”, the growth inhibition (M.tuberculosis H37Rv; Rifampicin .048 ug/ml, Thioacetazon 0) was “+” and the growth inhibition (M.tuberculosis H37Rv; Rifampicin .054 ug/ml, Thioacetazon 0) was “-”. For the same compound, the growth inhibition (M.tuberculosis H37Rv; Rifampicin .06 ug/ml, Thioacetazon 0) was “-”, the MIC (M. avium Bi) was 3 µg/mL and the growth inhibition ([11]; Rifampicin 0.8 ug/ml, Thioacetazon 0.000) was “+++”. For the same compound, the growth inhibition ([11]; Rifampicin 1.6 ug/ml, Thioacetazon 0.000) was “+++”, the growth inhibition ([11]; Rifampicin 2.4 ug/ml, Thioacetazon 0.000) was “++” and the growth inhibition ([11]; Rifampicin 3.2 ug/ml, Thioacetazon 0.000) was “++”. For the same compound, the growth inhibition ([11]; Rifampicin 4 ug/ml, Thioacetazon 0.000) was “-”, the growth inhibition ([11]; Rifampicin 4.8 ug/ml, Thioacetazon 0.000) was “-” and the growth inhibition ([11]; Rifampicin 5.4 ug/ml, Thioacetazon 0.000) was “-”. The growth inhibition ([11]; Rifampicin 6.4 ug/ml, Thioacetazon 0.000) was “-”, the growth inhibition ([11]; Rifampicin 7.2 ug/ml, Thioacetazon 0.000) was “-” and the growth inhibition ([11]; Rifampicin 8 ug/ml, Thioacetazon 0.000) was “-”. For the same compound, the MIC [1] was 32 µg/mL, the MIC [2] was 8 µg/mL and the MIC [3] was > 32 µg/mL. It also gave an MIC [4] of 16 µg/mL, an MIC (M. avium 227; M. avium 227, single substance) of 8 µg/mL and an MIC (M. avium 227; [14]) of 8 µg/mL. The MIC [5] was 32 µg/mL, the MIC [6] was > 32 µg/mL and the MIC [7] was > 32 µg/mL. The “effect against the mycobacteria of the MOTT-complex” value [12] was “no effect or only a slight effect”, the MIC [8] was 4 µg/mL and the resistance (M. avium Ro) was “completely resistant”. The MIC (M. avium Ro) was > 32 µg/mL, the MIC [9] was > 32 µg/mL and the MIC (M. avium Dan) was 16 µg/mL. It also gave an MIC [10] of 16 µg/mL.
For `CC(=O)Nc1ccc(C=NNC(N)=S)cc1` [Thz, thioacetazon], the growth inhibition (M.tuberculosis H37Rv; Thioacetazon .05 ug/ml, Rifampicin 0) was “+++”, the growth inhibition (M.tuberculosis H37Rv; Thioacetazon .10 ug/ml, Rifampicin 0) was “+++” and the growth inhibition (M.tuberculosis H37Rv; Thioacetazon .15 ug/ml, Rifampicin 0) was “+++”. The growth inhibition (M.tuberculosis H37Rv; Thioacetazon .20 ug/ml, Rifampicin 0) was “+++”, the growth inhibition (M.tuberculosis H37Rv; Thioacetazon .25 ug/ml, Rifampicin 0) was “+++” and the growth inhibition (M.tuberculosis H37Rv; Thioacetazon .30 ug/ml, Rifampicin 0) was “+++”. The growth inhibition (M.tuberculosis H37Rv; Thioacetazon .35 ug/ml, Rifampicin 0) was “+++”, the growth inhibition (M.tuberculosis H37Rv; Thioacetazon .40 ug/ml, Rifampicin 0) was “+ ++” and the growth inhibition (M.tuberculosis H37Rv; Thioacetazon .45 ug/ml, Rifampicin 0) was “+++”. For the same compound, the growth inhibition (M.tuberculosis H37Rv; Thioacetazon .50 ug/ml, Rifampicin 0) was “+++”, the MIC (M. avium Bi) was 3 µg/mL and the growth inhibition ([11]; Thioacetazon 0.8 ug/ml, Rifampicin 0) was “+++”. For the same compound, the growth inhibition ([11]; Thioacetazon 1.6 ug/ml, Rifampicin 0) was “+++”, the growth inhibition ([11]; Thioacetazon 2.4 ug/ml, Rifampicin 0) was “++” and the growth inhibition ([11]; Thioacetazon 3.2 ug/ml, Rifampicin 0) was “++”. The growth inhibition ([11]; Thioacetazon 4 ug/ml, Rifampicin 0) was “++”, the growth inhibition ([11]; Thioacetazon 4.8 ug/ml, Rifampicin 0) was “++” and the growth inhibition ([11]; Thioacetazon 5.6 ug/ml, Rifampicin 0) was “+”. For the same compound, the growth inhibition ([11]; Thioacetazon 6.4 ug/ml, Rifampicin 0) was “+”, the growth inhibition ([11]; Thioacetazon 7.2 ug/ml, Rifampicin 0) was “+” and the growth inhibition ([11]; Thioacetazon 8 ug/ml, Rifampicin 0) was “+”. It also gave an MIC [1] of 32 µg/mL, an MIC [2] of 32 µg/mL and an MIC [3] of 16 µg/mL. For the same compound, the MIC [4] was 32 µg/mL, the MIC (M. avium 227; M. avium 227, single substance) was 32 µg/mL and the MIC (M. avium 227; [14]) was 32 µg/mL. For the same compound, the undesirable side-effects [13] was “can lead to undesirable side-effects in higher doses”, the MIC [5] was 32 µg/mL and the MIC [6] was 32 µg/mL. The MIC [7] was > 32 µg/mL, the MIC [8] was > 32 µg/mL and the resistance (M. avium Ro) was “completely resistant”. The MIC (M. avium Ro) was > 32 µg/mL, the MIC [9] was > 32 µg/mL and the anti-mycobacterial effect (mycobacteria) was “only of weak effect”. For the same compound, the resistance (M. avium Dan) was “resistant”, the MIC (M. avium Dan) was > 32 µg/mL and the MIC [10] was 32 µg/mL.
